Data reported in paper PMC8035258 (ChemMedChem, 2021).

Molecular target: Mitochondrial respiratory complex II (Mus musculus, UniProt Q8K2B3+Q9CQA3+Q9CXV1+Q9CZB0)
Test: Complex II inhibition assay
Format: biochemical
Conditions: 100 μM; mouse liver mitochondria; mean ±SD of n = 4

Chain of Mitochondrial respiratory complex II (Q8K2B3 43-664): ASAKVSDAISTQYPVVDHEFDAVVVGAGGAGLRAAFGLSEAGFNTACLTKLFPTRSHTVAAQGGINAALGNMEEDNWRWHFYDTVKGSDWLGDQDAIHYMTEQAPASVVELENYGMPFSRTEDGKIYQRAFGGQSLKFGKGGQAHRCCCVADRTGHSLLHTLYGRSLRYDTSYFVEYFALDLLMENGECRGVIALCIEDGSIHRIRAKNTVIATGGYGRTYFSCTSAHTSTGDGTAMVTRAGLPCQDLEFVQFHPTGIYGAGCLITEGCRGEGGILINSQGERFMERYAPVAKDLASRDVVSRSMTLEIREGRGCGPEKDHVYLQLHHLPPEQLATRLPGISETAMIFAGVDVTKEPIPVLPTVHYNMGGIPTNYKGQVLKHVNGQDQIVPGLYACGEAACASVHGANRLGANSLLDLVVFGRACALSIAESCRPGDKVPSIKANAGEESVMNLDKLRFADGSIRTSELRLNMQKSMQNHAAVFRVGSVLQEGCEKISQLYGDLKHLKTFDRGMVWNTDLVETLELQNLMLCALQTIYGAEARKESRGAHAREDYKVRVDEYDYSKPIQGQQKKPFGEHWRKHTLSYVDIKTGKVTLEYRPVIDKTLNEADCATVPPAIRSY
Chain of Mitochondrial respiratory complex II (Q9CQA3 31-282): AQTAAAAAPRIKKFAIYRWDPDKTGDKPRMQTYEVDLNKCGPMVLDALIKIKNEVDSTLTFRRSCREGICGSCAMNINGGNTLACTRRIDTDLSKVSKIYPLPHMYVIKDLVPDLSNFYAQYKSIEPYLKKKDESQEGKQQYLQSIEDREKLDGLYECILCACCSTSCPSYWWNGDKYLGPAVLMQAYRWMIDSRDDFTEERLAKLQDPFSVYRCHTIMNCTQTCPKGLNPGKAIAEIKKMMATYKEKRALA
Chain of Mitochondrial respiratory complex II (Q9CZB0 30-169): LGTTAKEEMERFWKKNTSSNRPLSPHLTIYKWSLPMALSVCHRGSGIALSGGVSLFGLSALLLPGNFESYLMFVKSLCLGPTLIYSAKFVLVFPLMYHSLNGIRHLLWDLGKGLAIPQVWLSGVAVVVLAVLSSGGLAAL
Chain of Mitochondrial respiratory complex II (Q9CXV1 57-159): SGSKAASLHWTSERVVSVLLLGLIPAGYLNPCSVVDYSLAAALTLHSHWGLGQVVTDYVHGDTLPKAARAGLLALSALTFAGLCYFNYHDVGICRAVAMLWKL

% Inhibition CII (100 μM)	Compound
inactive	O=S1(=O)N=C(NCc2ccc(Cl)cc2)Nc2ccccc21 [Compound 16d, 3-((4-Chlorobenzyl)amino)-4H-benzo[e][1,2,4]thiadiazine 1,1-dioxide]

Same assay, conditions: read-out: % Inhibition CII (100 μM), 100 μM; mouse liver mitochondria; mean ±SD of n = 4

inhibition at 100 µM [%]	Compound
6 ± 1.5	O=C1Nc2ccc(F)cc2S(=O)(=O)N1 [Compound 11a, 7-Fluoro-3-oxo-3,4-dihydro-2H-1,2,4-benzothiadiazine 1,1-dioxide]
0	O=C1Nc2ccc(Br)cc2S(=O)(=O)N1 [Compound 11c, 7-Bromo-3-oxo-3,4-dihydro-2H-1,2,4-benzothiadiazine1,1-dioxide]
0	O=C1Nc2ccccc2S(=O)(=O)N1 [Compound 11d, 2H-benzo[e][1,2,4]thiadiazin-3(4H)-one 1,1-dioxide]
0	O=S1(=O)NC(=S)Nc2ccc(F)cc21 [Compound 12a, 7-Fluoro-3-thioxo-3,4-dihydro-2H-1,2,4-benzothiadiazine 1,1-dioxide]
2 ± 5.8	O=S1(=O)NC(=S)Nc2ccccc21 [Compound 12d, 2H-benzo[e][1,2,4]thiadiazine-3(4H)-thione 1,1-dioxide]
0	CSC1=NS(=O)(=O)c2cc(F)ccc2N1 [Compound 13a, 7-Fluoro-3-methylsulfanyl-4H-1,2,4-benzothiadiazine 1,1-dioxide]
24 ± 0.7	CSC1=NS(=O)(=O)c2ccc(Cl)cc2N1 [Compound 13b, 6-Chloro-3-methylsulfanyl-4H-1,2,4-benzothiadiazine 1,1-dioxide]
10 ± 2.7	CSC1=NS(=O)(=O)c2cc(Br)ccc2N1 [Compound 13c, 7-Bromo-3-methylsulfanyl-4H-1,2,4-benzothiadiazine 1,1-dioxide]
4 ± 5.5	CSC1=NS(=O)(=O)c2ccccc2N1 [Compound 13d, 3-(Methylthio)-4H-benzo[e][1,2,4]thiadiazine 1,1-dioxide]
4 ± 6.9	CC(C)NC1=NS(=O)(=O)c2cc(F)ccc2N1 [Compound 14a, 7-Fluoro-3-isopropylamino-4H-1,2,4-benzothiadiazine 1,1-dioxide]
0	CC(C)NC1=NS(=O)(=O)c2ccc(Cl)cc2N1 [Compound 14b, 6-Chloro-3-isopropylamino-4H-1,2,4-benzothiadiazine 1,1-dioxide]
0	CC(C)NC1=NS(=O)(=O)c2cc(Br)ccc2N1 [Compound 14c, 7-Bromo-3-isopropylamino-4H-1,2,4-benzothiadiazine 1,1-dioxide]
0	CC(C)NC1=NS(=O)(=O)c2ccccc2N1 [Compound 14d, 3-(Isopropylamino)-4H-benzo[e][1,2,4]thiadiazine 1,1-dioxide]
5 ± 4.5	CC(C)C(C)NC1=NS(=O)(=O)c2cc(F)ccc2N1 (stereo not drawn) [Compound 15a, 7-Fluoro-3-((3-methylbutan-2-yl)amino)-4H-benzo[e][1,2,4]thiadiazine 1,1-dioxide]
0	CC(C)C(C)NC1=NS(=O)(=O)c2ccc(Cl)cc2N1 (stereo not drawn) [Compound 15b, 6-Chloro-3-((3-methylbutan-2-yl)amino)-4H-benzo[e][1,2,4]thiadiazine 1,1-dioxide]
0	CC(C)C(C)NC1=NS(=O)(=O)c2ccccc2N1 (stereo not drawn) [Compound 15d, 3-((3-Methylbutan-2-yl)amino)-4H-benzo[e][1,2,4]thiadiazine 1,1-dioxide]
0	O=S1(=O)N=C(NCc2ccc(Cl)cc2)Nc2ccccc21 [Compound 16d, 3-((4-Chlorobenzyl)amino)-4H-benzo[e][1,2,4]thiadiazine 1,1-dioxide]
1 ± 6.2	O=S1(=O)N=C(NCc2ccc(F)cc2)Nc2ccc(F)cc21 [Compound 17a, 7-Fluoro-3-((4-fluorobenzyl)amino)-4H-benzo[e][1,2,4]thiadiazine 1,1-dioxide]
0	O=S1(=O)N=C(NCc2ccc(F)cc2)Nc2cc(Cl)ccc21 [Compound 17b, 6-Chloro-3-((4-fluorobenzyl)amino)-4H-benzo[e][1,2,4]thiadiazine 1,1-dioxide]
35 ± 9.9	O=S1(=O)N=C(NCc2ccc(F)cc2)Nc2ccc(Br)cc21 [Compound 17c, 7-Bromo-3-((4-fluorobenzyl)amino)-4H-benzo[e][1,2,4]thiadiazine 1,1-dioxide]
7 ± 9.9	O=S1(=O)N=C(NCc2ccc(F)cc2)Nc2ccccc21 [Compound 17d, 3-((4-Fluorobenzyl)amino)-4H-benzo[e][1,2,4]thiadiazine 1,1-dioxide]
4 ± 15.5	O=S1(=O)N=C(NCCc2ccccc2)Nc2ccc(F)cc21 [Compound 18a, 7-Fluoro-3-(phenethylamino)-4H-benzo[e][1,2,4]thiadiazine 1,1-dioxide]
19 ± 22.6	O=S1(=O)N=C(NCCc2ccccc2)Nc2cc(Cl)ccc21 [Compound 18b, 6-Chloro-3-(phenethylamino)-4H-benzo[e][1,2,4]thiadiazine 1,1-dioxide]
0	CCNC1=NS(=O)(=O)c2cc(F)ccc2N1 [Compound 19a, 3-(Ethylamino)-7-fluoro-4H-benzo[e][1,2,4]thiadiazine 1,1-dioxide]

inhibition at 100 µM [%]	Compound
0	CCNC1=NS(=O)(=O)c2ccc(Cl)cc2N1 [Compound 19b, 6-Chloro-3-(ethylamino)-4H-benzo[e][1,2,4]thiadiazine 1,1-dioxide]
11 ± 6.9	CCNC1=NS(=O)(=O)c2cc(Br)ccc2N1 [Compound 19c, 7-Bromo-3-(ethylamino)-4H-benzo[e][1,2,4]thiadiazine 1,1-dioxide]
0	CCNC1=NS(=O)(=O)c2ccccc2N1 [Compound 19d, 3-(Ethylamino)-4H-benzo[e][1,2,4]thiadiazine 1,1-dioxide]
0	COc1ccc(CNC2=NS(=O)(=O)c3cc(F)ccc3N2)cc1 [Compound 20a, 7-Fluoro-3-((4-methoxybenzyl)amino)-4H-benzo[e][1,2,4]thiadiazine 1,1-dioxide]
0	COc1ccc(CNC2=NS(=O)(=O)c3ccccc3N2)cc1 [Compound 20d, 3-((4-Methoxybenzyl)amino)-4H-benzo[e][1,2,4]thiadiazine 1,1-dioxide]
0	O=S1(=O)N=C(NCc2ccccc2)Nc2ccc(F)cc21 [Compound 21a, 3-(Benzylamino)-7-fluoro-4H-benzo[e][1,2,4]thiadiazine 1,1-dioxide]
36 ± 9	O=S1(=O)N=C(NCc2ccccc2)Nc2ccc(Br)cc21 [Compound 21c, 3-(Benzylamino)-7-bromo-4H-benzo[e][1,2,4]thiadiazine 1,1-dioxide]
0	O=S1(=O)N=C(NCc2ccccc2)Nc2ccccc21 [Compound 21d, 3-(Benzylamino)-4H-benzo[e][1,2,4]thiadiazine 1,1-dioxide]
1 ± 4.7	O=S1(=O)N=C(NC2CCCC2)Nc2ccc(F)cc21 [Compound 22a, 7-Fluoro-3-(cyclopentylamino)-4H-benzo[e][1,2,4]thiadiazine 1,1-dioxide]
25 ± 7.8	O=S1(=O)N=C(NC2CCCC2)Nc2ccc(Br)cc21 [Compound 22c, 7-Bromo-3-(cyclopentylamino)-4H-benzo[e][1,2,4]thiadiazine 1,1-dioxide]
0	O=S1(=O)N=C(NCCCc2ccccc2)Nc2ccccc21 [Compound 23d, 3-((3-Phenylpropyl)amino)-4H-benzo[e][1,2,4]thiadiazine 1,1-dioxide]
6 ± 15.7	O=S1(=O)N=C(NCc2ccc(C(F)(F)F)cc2)Nc2ccc(F)cc21 [Compound 25a, 7-Fluoro-3-((4-(trifluoromethyl)benzyl)amino)-4H-benzo[e][1,2,4]thiadiazine 1,1-dioxide]
0	COc1ccccc1CNC1=NS(=O)(=O)c2ccc(Cl)cc2N1 [Compound 26b, 6-Chloro-3-((2-methoxybenzyl)amino)-4H-benzo[e][1,2,4]thiadiazine 1,1-dioxide]
23 ± 9.9	Cc1ccc(CNC2=NS(=O)(=O)c3cc(F)ccc3N2)cc1 [Compound 27a, 7-Fluoro-3-((4-methylbenzyl)amino)-4H-benzo[e][1,2,4]thiadiazine 1,1-dioxide]
29 ± 6.2	Cc1ccc(CNC2=NS(=O)(=O)c3cc(Br)ccc3N2)cc1 [Compound 27c, 7-Bromo-3-((4-methylbenzyl)amino)-4H-benzo[e][1,2,4]thiadiazine 1,1-dioxide]
24 ± 5.2	COc1cccc(CNC2=NS(=O)(=O)c3cc(Br)ccc3N2)c1 [Compound 28c, 7-Bromo-3-((3-methoxybenzyl)amino)-4H-benzo[e][1,2,4]thiadiazine 1,1-dioxide]
2 ± 6.9	O=S1(=O)N=C(NCc2ccc(OC(F)(F)F)cc2)Nc2ccc(F)cc21 [Compound 30a, 7-Fluoro-3-((4-(trifluoromethoxy)benzyl)amino)-4H-benzo[e][1,2,4] thiadiazine 1,1-dioxide]
9 ± 6	Nc1ccc(CNC2=NS(=O)(=O)c3cc(Br)ccc3N2)cc1 [Compound 31c, 3-((4-Aminobenzyl)amino)-7-bromo-4H-benzo[e][1,2,4]thiadiazine 1,1-dioxide]
0	C=CCNC1=NS(=O)(=O)c2ccc(Cl)cc2N1 [Compound 32b, 3-(Allylamino)-6-chloro-4H-benzo[e][1,2,4]thiadiazine 1,1-dioxide]
2 ± 12.3	C=CCNC1=NS(=O)(=O)c2ccccc2N1 [Compound 32d, 3-(Allylamino)-4H-benzo[e][1,2,4]thiadiazine 1,1-dioxide]
17 ± 3.3	COc1ccc(CCNC2=NS(=O)(=O)c3cc(Br)ccc3N2)cc1 [Compound 34c, 7-Bromo-3-((4-methoxyphenethyl)amino)-4H-benzo[e][1,2,4]thiadiazine 1,1-dioxide]
29 ± 5.9	O=S1(=O)N=C(NCc2ccccc2C(F)(F)F)Nc2ccc(Br)cc21 [Compound 35c, 7-Bromo-3-((2-(trifluoromethyl)benzyl)amino)-4H-benzo[e][1,2,4]thiadiazine 1,1-dioxide]
34 ± 18.4	O=S1(=O)N=C(NCCc2ccc(Cl)cc2)Nc2ccc(F)cc21 [Compound 37a, 3-((4-Chlorophenethyl)amino)-7-fluoro-4H-benzo[e][1,2,4]thiadiazine 1,1-dioxide]
